Consider 9 molecules from patent US20180353512A1, “COMBINATION THERAPIES FOR TREATING B-CELL MALIGNANCIES” (GILEAD SCIENCES, INC., priority 2015, published 2018).

Where two headings read alike, the source gives them in different places.

What is called EC50 is the concentration needed to bring the measured effect to its halfway point.

Assay type in all cases: cell-based
Assay [1] concerns TMD8. The experiment in a line: CellTiter-Glo viability assay at 96 h (Example 5). Conditions: Homo sapiens. As for the experimental part: (§1) Growth inhibition to Idelalisib or other inhibitors was assessed using CellTiter-Glo viability assay at 96 h. […] Cell lines were analyzed by whole exome sequencing, RNASeq, and phosphoproteomics. Protein expression was measured using Simple Western and SDS/PAGE and western blot. Caspase 3/7 was measured using Caspase-Glo 3/7 assay; apoptosis was measured with Annexin V assay and propidium iodide by flow cytometry.
(§2) Cell viability EC50 was determined using a sigmoidal dose-response (variable slope) curve generated from quadruplicate samples. Statistical significance was determined using the student's t-test for cell viability and two-tailed paired t-test for apoptosis experiments in Prism (GraphPad).
Background: Cellular ATP, detected with luciferase, serves as a proxy for viable cell number.

The test system of assay [2] is FSCCL (WSU-FSCCL). The experiment in a line: CellTiter Glo viability assay after 96 h. Conditions: read-out: EC50, cell viability. The procedure:
(§3) Idelalisib resistance was established by continuous passaging of a clonal isolate of WSU-FSCCL in the presence of 1 μM idelalisib; clonal isolates from a passage-matched line (FSCCL^S) and idelalisib-resistant line (FSCCL^R) were generated through 2 rounds of single-cell-limiting dilution. Growth inhibition to idelalisib or other inhibitors was performed after 96 h using CellTiter Glo viability assay. Characterization of mutations and gene expression were identified by whole exome sequencing and RNA-Seq, respectively. Whole cell lysates were analyzed by western blots.

Assay [3] has as its system FSCCL^R clone 1 (PI3KCA E970K). The experiment in a line: CellTiter Glo viability assay after 96 h. As for the experimental part:
as §3

Assay [4] has as its system FSCCL^R clone 2 (PI3KCA N345K). The assay can be described thus: CellTiter Glo viability assay after 96 h. The procedure:
as §3

Assay [5] relates to FSCCL^R clone 3 (PI3KCA P539R). The experiment in a line: CellTiter Glo viability assay after 96 h. The procedure: as §3
Assay [6] relates to FSCCL^S. The assay can be described thus: CellTiter Glo viability assay after 96 h. Conditions: read-out: EC50. The procedure: as §3
For assay [7], the system named is FSCCL^R SFK^HIGH. The experiment in a line: CellTiter Glo viability assay after 96 h. The procedure:
as §3

The subject of assay [8] is TMD8^R (Idelalisib-resistant line). The assay can be described thus: CellTiter-Glo viability assay at 96 h. Conditions: read-out: EC50, cell viability. As for the experimental part: as §1, §2
(§4) Idelalisib-resistant (TMD8^R) cell line and passage-matched Idelalisib-sensitive (TMD8^S) cell line were generated according to the procedure described in Example 5 above. To characterize the resistant cells, cell viability assays, RNASeq of multidrug resistance (MDR) family of ABC transporter genes (N=33), apoptosis assays, and phosphoprotein analysis were performed. Cell viability was measured using CellTiter-Glo, as described in Example 1A above. Western blot and protein level analysis were performed after treatment with 420 nM idelalisib, 320 nM Compound B and combination thereof, using Peggy Sue (ProteinSimple) automated Western Blot system. Protein concentration (pg/μL) was quantitated using recombinant protein standards. Normalized AUC were determined for each of the treatment groups, normalized to actin. Apoptosis was assessed by propidium iodide and Annexin V/FITC staining and measured by flow cytometry, as described in Example 1A above. Western Blot with anti-p-AKT (S473) antibody and Peggy Sue were used to determine the phosphorylation state of downstream signaling components.

Assay [9] deals with TMD8^S (DMSO passage matched, idelalisib-sensitive line). The assay can be described thus: CellTiter-Glo viability assay at 96 h. Conditions: read-out: EC50, cell viability. The procedure:
as §1, §2, §4

The test system of assay [10] is TMD8^R cells. The experiment in a line: Apoptosis, Annexin V assay and propidium iodide by flow cytometry. Conditions: Annexin V at 48 h, Idelalisib=1 μM. The procedure: as §1
Assay [11] deals with OCI-LY10 cells. The experiment in a line: CellTiter-Glo cell viability assay, four days (Example 1A). Conditions: OCI-LY10; single agent. The procedure:
(§5) In vitro anti-proliferative activity of agents was assessed using CellTiter-Glo™ Assay (Promega), which quantifies cellular ATP level. Test compounds were dissolved in DMSO to prepare 10 mM stock solutions. […] For drug combination studies, a two or three fold horizontal serial dilution pattern was used for Compound B and combined with Idelalisib using a two, three, or four fold vertical serial dilution pattern. […] The final DMSO concentration in the test media was 0.2%. Each combination used replicates of four plates to generate sufficient data for evaluation of synergy scores. […] The assay growth medium for all lines was RPMI supplemented with 20% FBS and […] penicillin-streptomycin. Seeding density was optimized for growth rate over 96 hours for each cell line and was between 10,000-30,000 cells per well of 96 well plates. After four days incubation with agents at 37° C./5% CO2, the CellTiter-Glo™ assay was performed following the manufacturer's protocol. Relative luminescence units were quantified using a Biotek Synergy luminometer.
(§6) Data from a plate was excluded if either Z′<0.5 or the growth of the cell lines was less than one doubling in the four day assay period. Z′ was calculated using the formula: Z′=[1−((3(σstau+σDMSO))/(|μDMSO−μstau|)] where σstau and σDMSO are the standard deviation of the 100% inhibited staurosporine and 0% inhibited DMSO control wells, respectively. μDMSO and μstau are the mean of the […] control wells, respectively. The raw Cell Titer Glo signal was normalized according to the following formula: [(raw value)−(100% inhibited staurosporine control)]/[(DMSO control value)−(100% inhibited staurosporine control)].
(§7) EC50 was determined using GraphPad Prism or Dose Response software by fitting the data to a four parameters variable slope model. […] For combination studies, the EC50 at each test article concentration was determined from graphs of the EC50 of one compound at a fixed dose of second compound. The EC50 shift was calculated by taking the ratio of the EC50 of the single agent by the EC50 at the maximum dose of the second agent.
(§8) Synergy was analyzed using the MacSynergy II program, which calculates a theoretical additive value for the drug combination that is based on the values generated by each drug alone using the Bliss Independence mathematical model. The Bliss independence model assumes that each drug acts independently. The theoretical additive effect for each compound is calculated and then subtracted from the actual effect. Synergy is defined by greater than expected effects while antagonism is defined by less than expected effects. In this example, a synergy volume greater than 50 was considered significant. The EC50 values determined in drug combination studies represent a single experiment run in quadruplicate and therefore may differ slightly from the single agent EC50 values.

For assay [12], the system named is Ri-1 cells. The assay is described as above. The conditions noted are these: Ri-1; single agent. The procedure:
as §5, §6, §7, §8

In assay [13] the test system is TMD-8 cells. The description is as above. Conditions: TMD-8; single agent. The procedure: as §5, §6, §7, §8
[14] abbreviates: read-out: EC50 BYL-719 (+IDELA 0.6 μm).
[15] abbreviates: FIGS. 11A, 13A, printed with 1 μM of each named agent.

Regarding `Cc1cc([C@@H](C)Nc2ccccc2C(=O)O)c2nc(N3CCOCC3)cc(=O)n2c1` [AZD-6482], the EC50 came to 520 nM in assay [1] and 4600 nM in assay [2].

In the case of `Cc1nc(NC(=O)N2CCC[C@H]2C(N)=O)sc1-c1ccnc(C(C)(C)C(F)(F)F)c1` [BYL-719], the EC50 in assay [1] is 1200 nM; in assay [2], over 10000 nM; in assay [3] (setting [14]), 123 nM; in [3] (single agent, read-out: EC50), 2120 nM; in assay [4] (setting [14]), 143 nM; in assay [4] (single agent, read-out: EC50), 1540 nM. Further, the EC50 in assay [5] (setting [14]) was 239 nM; in [5] (single agent, read-out: EC50), over 3000 nM; in assay [6] (PI3KCA WT, Table 13, single agent) it was 1610 nM.

As for `Cc1nc(Nc2ncc(C(=O)Nc3c(C)cccc3Cl)s2)cc(N2CCN(CCO)CC2)n1` [Dasatinib], the EC50 was 15 nM in [7] (read-out: EC50 Dasatinib (+IDELA 600 nM)); 58 nM in assay [7] (single agent, read-out: EC50 Dasatinib); 34 nM in [6] (Table 14, single agent).

For `C[C@H](Nc1nc[nH]c2ncnc1-2)c1cc2cccc(Cl)c2c(=O)n1-c1ccccc1` [Duvelisib, 8-Chloro-2-phenyl-3-[(1S)-1-(3H-purin-6-ylamino)ethyl]-1(2H)-isoquinolinone], the EC50 in assay [8] (TMD8^R, single agent) was over 4000 nM; in assay [9] (single agent) it was 580 nM.

As to `c1cn2cc(-c3ccc4cn[nH]c4c3)nc(Nc3ccc(N4CCOCC4)cc3)c2n1` [ENTO], the EC50 in assay [7] (read-out: EC50 ENTO (+IDELA 600 nM)) stood at 1920 nM; in assay [6] (Table 15, single agent) it was 1800 nM.

Turning to `CS(=O)(=O)N1CCN(Cc2cc3nc(-c4cccc5[nH]ncc45)nc(N4CCOCC4)c3s2)CC1` [GDC-0941], the EC50 in [1] was 27 nM.

On to `CNc1nc(-c2ccc3c(N)n[nH]c3c2)cc(N2C[C@@H](C(=O)NC3CCCCC3)CC[C@H]2C)n1` [GSK-2334470], for which the EC50 in assay [8] (setting [15]) is under 10000 nM. In assay [10] (GSK-2334470=1 μM, vehicle control 22%), this molecule gave an apoptosis of 21%.

On to `C=CC(=O)N1CCC[C@@H](n2nc(-c3ccc(Oc4ccccc4)cc3)c3c(N)ncnc32)C1` [Ibrutinib, 1-[(3R)-3-[4-Amino-3-(4-phenoxyphenyl)-1H-pyrazolo[3,4-d]pyrimidin-1-yl]piperidin-1-yl]prop-2-en-1-one], for which the “growth of cell line” value in assay [11], in assay [12] and in [13] was “inhibited the growth” throughout. For the same molecule, the EC50 in [9] (unit inferred) turned out to be 0.5 nM.

As to `NC1(c2ccc(-c3nc4ccn5c(=O)[nH]nc5c4cc3-c3ccccc3)cc2)CCC1` [MK-2206], the EC50 in assay [8] (setting [15]) is under 10000 nM. For the same molecule, the apoptosis in [10] (MK-2206=1 μM, vehicle control 24%) is on record as 33%.
